This is an account of results in article PMC12591484 (PLOS One, 2025).

In experiment [1] the target is T1, α1β3γ2I242C GABAA receptors (Homo sapiens, UniProt P14867+P18507+P28472, I281C).
T1 construct: expressed in transfected cells; host or cells: Xenopus oocytes injected with capped mRNAs mixed 1α:1β:5γ
Further details: key: +: Mutant-function studies are deemed positive when bulky mutations (mostly tryptophans) at the site significantly reduce positive modulation by anesthetics; -: Negative results are indicated by “–“ symbols. The settings on record: previously reported; cited from earlier work.

Experiment [2] deals with T2, α1β3γ2L246C GABAA receptors (Homo sapiens, UniProt P14867+P18507+P28472, L285C).
T2 construct: expressed in transfected cells; host or cells: Xenopus oocytes injected with capped mRNAs mixed 1α:1β:5γ
Also noted: key: +: Mutant-function studies are deemed positive when bulky mutations (mostly tryptophans) at the site significantly reduce positive modulation by anesthetics; -: Negative results are indicated by “–“ symbols. Particulars: previously reported; cited from earlier work.

In experiment [3] the test system is α1β3γ2L GABAA receptors, substituted cysteine at α1L232 (α1– M1). Further details: key: +: Mutant-function studies are deemed positive when bulky mutations (mostly tryptophans) at the site significantly reduce positive modulation by anesthetics; -: Negative results are indicated by “–“ symbols. Particulars: previously reported; cited from earlier work.
For experiment [4], the target named is T2, α1β3γ2L246C GABAA receptors. In words: Drug protection from pCMBS modification (SCAMP). In kind it is cell-based. Also noted: key: +: Mutant-function studies are deemed positive when bulky mutations (mostly tryptophans) at the site significantly reduce positive modulation by anesthetics; -: Negative results are indicated by “–“ symbols. The settings on record: results of this study (*); etomidate cell also cites [9]. On the procedure: (§1) Experiments were performed in ND-96 buffer at room temperature (20–22°C). Oocytes were placed in a low-volume (30µl) flow chamber and impaled with borosilicate microelectrodes filled with 3M KCl (resistance 0.5–3 MΩ) and voltage-clamped at −50 mV (model OC-725C; Warner Instruments, Hamden, CT, USA). Superfusate solutions in ND-96 were delivered at 2 ml/min from glass syringe reservoirs via computer-controlled valves (VC-8; Warner Instruments), a micro-manifold (ALA-VM8; ALA Scientific Instruments, Farmingdale, NY, USA), and PTFE tubing. Currents were digitized at 200 Hz on a computer running ClampEx v8.0 software (Molecular Devices, San Jose, CA, USA). Digitized traces were filtered with a 10-Hz low-pass Bessel function, leak corrected and analyzed for peak amplitude off-line using Clampfit v8 software (Molecular Devices).
(§2) Drug protection from pCMBS modification was assessed under pCMBS exposure conditions that produced approximately half of the maximal modification ratio for each mutant receptor, and a least a value of 3. This approach balanced the magnitude of functional modification signals (smaller with less pCMBS exposure) against the challenge of using a reversibly bound ligand to competitively block an irreversible covalent cysteine-modifying reaction. […] Each oocyte was used in a single SCAMP experiment. […] Etomidate was used as a positive control for anesthetic protection in α1M236C and β3M286C mutants and as a negative control in α1S270C, α1A291C, β3L231C, γ2S301C, γ2I242C, and γ2L246C mutants. R-mTFD-MPAB was used as a positive control in α1S270C, α1A291C, β3L231C, and γ2LS301C mutants and as a negative control in α1M236C and β3M286C mutants. For each cysteine mutant and protective drug combination, five oocytes were studied.
(§3) Non-linear least squares fits and statistical analyses were performed in Prism 10.4.0. (GraphPad Software, San Diego, CA, USA). […] Protection (steric inhibition of pCMBS modification) was inferred when anesthetics produced significant reductions in modification ratios relative to control (no anesthetic) values. The statistical significance threshold was p < 0.05.

Experiment [5] concerns the target T3, α1β3L231Cγ2L GABAA receptors (Homo sapiens, UniProt P14867+P18507+P28472, L256C).
T3 construct: expressed in transfected cells; host or cells: Xenopus oocytes injected with capped mRNA, 1α:1β:5γ
In words: Drug protection from pCMBS modification (SCAMP). Also noted: key: +: Mutant-function studies are deemed positive when bulky mutations (mostly tryptophans) at the site significantly reduce positive modulation by anesthetics; -: Negative results are indicated by “–“ symbols. In kind it is cell-based. Particulars: results of this study (*); some cells also cite [9]. As to the method:
as §1, §2, §3

In experiment [6] the test system is α1β3γ2L GABAA receptors, substituted cysteine at α1L232 (α1– M1). Also noted: key: +: SCAMP is Substituted Cysteine Modification and Protection and is positive when adding anesthetic to cysteine modifier significantly reduces persistent post-exposure effects due to covalent modification; -: Negative results are indicated by “–“ symbols. The settings on record: previously reported; cited from earlier work.

SMILES strings stand for the structures. Read-outs that look alike come from different tables or passages of the source.

T2 sequence (P14867 28-456, stated change not applied): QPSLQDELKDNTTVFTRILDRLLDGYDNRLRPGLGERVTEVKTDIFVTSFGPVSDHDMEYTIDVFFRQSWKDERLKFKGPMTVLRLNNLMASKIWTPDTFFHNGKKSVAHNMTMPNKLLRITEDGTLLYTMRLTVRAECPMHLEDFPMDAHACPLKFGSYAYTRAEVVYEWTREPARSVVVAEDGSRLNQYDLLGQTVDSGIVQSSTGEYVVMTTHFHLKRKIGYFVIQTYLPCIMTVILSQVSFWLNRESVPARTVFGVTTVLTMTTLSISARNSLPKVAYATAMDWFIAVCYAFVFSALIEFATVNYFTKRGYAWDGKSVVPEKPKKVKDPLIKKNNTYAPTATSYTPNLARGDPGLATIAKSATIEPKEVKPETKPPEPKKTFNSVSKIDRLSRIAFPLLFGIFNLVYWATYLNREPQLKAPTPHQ
T2 sequence (P28472 26-473): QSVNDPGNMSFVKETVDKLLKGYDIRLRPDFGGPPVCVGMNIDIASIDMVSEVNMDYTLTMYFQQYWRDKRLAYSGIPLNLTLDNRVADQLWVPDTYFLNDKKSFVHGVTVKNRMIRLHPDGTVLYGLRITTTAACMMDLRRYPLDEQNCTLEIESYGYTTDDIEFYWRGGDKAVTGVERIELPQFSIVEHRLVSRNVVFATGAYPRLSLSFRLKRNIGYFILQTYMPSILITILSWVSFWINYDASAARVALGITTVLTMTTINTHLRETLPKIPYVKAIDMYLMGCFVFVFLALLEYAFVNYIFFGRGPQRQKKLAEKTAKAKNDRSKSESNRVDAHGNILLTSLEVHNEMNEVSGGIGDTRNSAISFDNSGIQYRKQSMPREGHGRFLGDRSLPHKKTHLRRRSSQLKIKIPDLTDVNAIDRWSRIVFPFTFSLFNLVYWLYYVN
T2 sequence (P18507 40-475 L285C): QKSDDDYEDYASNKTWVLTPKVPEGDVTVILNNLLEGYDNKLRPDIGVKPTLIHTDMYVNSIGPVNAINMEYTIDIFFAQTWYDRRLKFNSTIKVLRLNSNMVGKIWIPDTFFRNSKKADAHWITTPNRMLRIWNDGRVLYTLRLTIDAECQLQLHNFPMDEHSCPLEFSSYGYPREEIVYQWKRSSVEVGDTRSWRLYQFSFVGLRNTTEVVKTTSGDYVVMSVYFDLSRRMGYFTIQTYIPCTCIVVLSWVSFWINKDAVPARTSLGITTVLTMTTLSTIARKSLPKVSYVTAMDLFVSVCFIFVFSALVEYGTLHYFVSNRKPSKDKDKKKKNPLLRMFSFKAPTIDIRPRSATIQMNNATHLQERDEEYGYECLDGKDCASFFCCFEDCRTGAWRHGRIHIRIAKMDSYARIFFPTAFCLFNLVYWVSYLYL
T1 sequence (P14867 28-456): as the sequence (P14867 28-456, stated change not applied) above
T1 sequence (P28472 26-473): as the sequence (P28472 26-473) above
T1 sequence (P18507 40-475 I281C): as the sequence (P18507 40-475 L285C) above, with I242C, C246L counted along it
T3 sequence (P14867 28-456): as the sequence (P14867 28-456, stated change not applied) above
T3 sequence (P28472 26-473 L256C): as the sequence (P28472 26-473) above, with L231C counted along it
T3 sequence (P18507 40-475): as the sequence (P18507 40-475 L285C) above, with C246L counted along it

Take `C=CCC1(c2cccc(C3(C(F)(F)F)N=N3)c2)C(=O)NC(=O)N(C)C1=O` (stereo not drawn) [R-mTFD-MPAB, R-5-allyl-1-methyl-5-(m-trifluoromethyl-diazirynylphenyl) barbituric acid]: the “SCAMP result, γ2– (M1) I242” value in experiment [1] was “-^[9]”. For the same compound, the “SCAMP result, γ2– (M1) L246” value in experiment [2] was “-^[9]”. Moreover, the “SCAMP result, α1– (M1) L232” value in experiment [3] was “-^[9]”.
As for `CCOC(=O)c1cncn1[C@H](C)c1ccccc1` [etomidate, R-etomidate], the “SCAMP result, γ2– (M1) L246” value in experiment [4] was “-^[9], *”. Moreover, the “SCAMP result, β3– (M1) L231” value in experiment [5] was “-^[9], *”. In experiment [6], the “SCAMP result, α1– (M1) L232” value was “+^[9]”.
